Measured values taken from paper PMC5769417, “Single- and Multiple-Dose Trials to Determine the Pharmacokinetics, Safety, Tolerability, and Sex Effect of Oral Ginsenoside Compound K in Healthy Chinese Volunteers” (Frontiers in Pharmacology, 2018).
Where two headings read alike, the source gives them in different places.

Tests used:
beagle dogs = conditions: cited from earlier work
[1] = Single-dose trial, plasma pharmacokinetics; format: in vivo, human; conditions: for Tmax / half-life / AUC(0-inf) / AUC(0-t) / MRT inf / MRT last / Cmax: both sexes, human, plasma; for Cmax: read-out: Cmax
Description: Single-dose pharmacokinetics: The single-dose trial was performed first. […] Drinking before and after medication was prohibited for 2 h, but the amount and time of drinking were not strictly controlled at other times. All subjects had standard lunch and dinner (unified light diet) after medication 4 and 10 h. Single-dose pharmacokinetics: […] We preserved 8 ml specimens into 10 ml centrifuge tubes and stored at −70°C for PK assessment. All samples were preserved at −70°C and analyzed with a LC-MS/MS (API 4000 LC-MS/MS, ABI Company, Foster City, CA, USA) at the Institute of Clinical Pharmacology, Central South University (Changsha, China). […] An aqueous solution of a stable internal standard (IS for CK: digoxin, Shijiaoke Biological Technology Co. Ltd., Beijing, China; IS for PPD: coumarin, Sigma-Aldrich, St. Louis, USA) and 1 M phosphate buffer were added to 0.5 ml of thawed sample, and analytical standards and quality control (QC) samples were prepared in the same matrix. All samples were treated with 2 ml of methyl tert-butyl ether (MTBE, CNW technologies GmbH, Duesseldorf, Germany) to precipitate the bulk of plasma proteins. After mechanical shock by mixing for 10 min and a subsequent centrifugation (4,000 rpm, 4°C, 10 min), 1.4 ml of the supernatant was transferred and blow-dried with nitrogen in a water bath at 40°C. Lastly, the residue was dissolved in 100 μl of mobile phase and then was subjected to a mechanical shock by mixing, and centrifuged. The supernatant was subsequently injected into the column for analysis. […] Accuracy and precision of the assay were determined by evaluating the performance of the assay controls. Over the quantification range, the accuracy of the QC samples varied from 85 to 115% and the intra- and inter-assay imprecision was <15%. PK parameters were derived according to noncompartmental analysis and actual elapsed time from dosing by WinNonlin version 6.1 (Pharsight Corporation, Mountain View, CA, USA). […] The area under the curve (AUC) from time zero to the last time point (AUClast) and the AUC extrapolated to infinity (AUCinf) were calculated using the linear trapezoidal rule. The slope (elimination rate constant, K) of the terminal phase of the plasma concentration-time profile was determined, using a weighting factor of 1, by the method of least squares (log-linear regression of at least three data points). The t1/2 was estimated as (ln2)/K. […] The apparent volume of distribution (V/F) was equal to (CL/F)/K. The mean residence time (MRT) was calculated as the area under the first moments curve (AUMC) divided by AUC. The dose-normalized PK parameters e.g., Cmax/D and AUClast/D, were obtained by dividing each PK result by the administered dose. The cumulative excretion rate was calculated as the amount of unchanged drug in the urine over a time interval divided by the dose and was expressed as thousand points (‰).

[2] = single-dose trial, 25 mg oral, fasting
[3] = single-dose trial, 50 mg oral, fasting
[4] = single-dose trial, 100 mg oral, fasting
[5] = single-dose trial, 200 mg oral, fasting
[6] = single-dose trial, 400 mg oral, fasting
[7] = single-dose trial, 600 mg oral, fasting
[8] = single-dose trial, 800 mg oral, fasting

What does the source list for `CC(C)=CCC[C@](C)(OC1O[C@H](CO)[C@@H](O)[C@H](O)[C@H]1O)[C@H]1CC[C@]2(C)[C@@H]1[C@H](O)C[C@@H]1[C@@]3(C)CC[C@H](O)C(C)(C)[C@@H]3CC[C@]12C` (stereo partly drawn) [CK, 20-O-beta-D-glucopyranosyl-20(S)-protopanaxadiol]?
No observed adverse effect level (NOAEL) (beagle dogs): 7.5 mg/kg; dose at which diarrhea symptom occurred (beagle dogs; long-term toxicity test): 75 mg/kg; Tmax ([1]; oral, both trials, all doses, read-out: range of time to maximum concentration (Tmax)): 1.5 to 6 h; Tmax ([1]; oral, medians, both trials, read-out: Tmax in this study): 2.5 to 3.8 h; half-life ([1]; oral, single-dose trial, 25–800 mg, read-out: mean t1/2 across the dose groups): 13.5 to 26.2 h; Tmax ([1]; oral, single-dose trial, 25–800 mg, read-out: median Tmax across the dose groups): 2.5 to 3.3 h; Tmax ([1]; po, 25 mg, single-dose trial, 25 mg oral, fasting, read-out: Tmax, median (range)): 3 h; Tmax ([1]; po, 50 mg, single-dose trial, 50 mg oral, fasting, read-out: Tmax, median (range)): 3 h; Tmax ([1]; po, 100 mg, single-dose trial, 100 mg oral, fasting, read-out: Tmax, median (range)): 3 h; Tmax ([1]; po, 200 mg, single-dose trial, 200 mg oral, fasting, read-out: Tmax, median (range)): 3.3 h; Tmax ([1]; po, 400 mg, single-dose trial, 400 mg oral, fasting, read-out: Tmax, median (range)): 3 h; AUC(0-inf) [1, 2]: 1270 ± 276 ng·h/mL; AUC(0-t) [1, 2]: 1230 ± 267 ng·h/mL; MRT inf [1, 2]: 10.9 ± 1.9 h; MRT last [1, 2]: 8.9 ± 1.3 h; Cmax [1, 2]: 175 ± 35.1 ng/mL; half-life ([1]; single-dose trial, 25 mg oral, fasting, read-out: t1/2 (converted)): 13.5 ± 0.6 h; AUC(0-inf) [1, 3]: 2250 ± 861 ng·h/mL; AUC(0-t) [1, 3]: 2120 ± 770 ng·h/mL; MRT inf [1, 3]: 12.5 ± 2.4 h; MRT last [1, 3]: 9.1 ± 0.7 h; Cmax [1, 3]: 300 ± 98.5 ng/mL; half-life ([1]; single-dose trial, 50 mg oral, fasting, read-out: t1/2 (converted)): 15.9 ± 4.2 h; AUC(0-inf) [1, 4]: 2820 ± 1440 ng·h/mL; AUC(0-t) [1, 4]: 2760 ± 1420 ng·h/mL; MRT inf [1, 4]: 13.7 ± 1 h; MRT last [1, 4]: 11.4 ± 0.9 h; Cmax [1, 4]: 351 ± 180 ng/mL; half-life ([1]; single-dose trial, 100 mg oral, fasting, read-out: t1/2 (converted)): 22.4 ± 3.3 h; AUC(0-inf) [1, 5]: 6090 ± 3600 ng·h/mL; AUC(0-t) [1, 5]: 5960 ± 3520 ng·h/mL; MRT inf [1, 5]: 13.8 ± 1.6 h; MRT last [1, 5]: 11.5 ± 1.4 h; Cmax [1, 5]: 734 ± 408 ng/mL; half-life ([1]; single-dose trial, 200 mg oral, fasting, read-out: t1/2 (converted)): 21.6 ± 5.5 h; AUC(0-inf) [1, 6]: 8240 ± 2050 ng·h/mL; AUC(0-t) [1, 6]: 8100 ± 2020 ng·h/mL; MRT inf [1, 6]: 14 ± 1.5 h; MRT last [1, 6]: 11.9 ± 1.1 h; Cmax [1, 6]: 1030 ± 295 ng/mL; half-life ([1]; single-dose trial, 400 mg oral, fasting, read-out: t1/2 (converted)): 22.3 ± 4 h; AUC(0-inf) [1, 7]: 9280 ± 4240 ng·h/mL; AUC(0-t) [1, 7]: 9090 ± 4200 ng·h/mL; MRT inf [1, 7]: 15.9 ± 2.8 h; MRT last [1, 7]: 12.7 ± 0.9 h; Cmax [1, 7]: 1160 ± 466 ng/mL; half-life ([1]; single-dose trial, 600 mg oral, fasting, read-out: t1/2 (converted)): 26.2 ± 6.3 h; AUC(0-inf) [1, 8]: 9200 ± 4180 ng·h/mL; AUC(0-t) [1, 8]: 8990 ± 4100 ng·h/mL; MRT inf [1, 8]: 14.7 ± 2.6 h; MRT last [1, 8]: 12 ± 1.8 h; Cmax [1, 8]: 1180 ± 445 ng/mL; half-life ([1]; single-dose trial, 800 mg oral, fasting, read-out: t1/2 (converted)): 25.7 ± 3 h; CL/F [1, 2]: 20.5 ± 4.7 l·h ^−1; V/F [1, 2]: 397 ± 86 L; CL/F [1, 3]: 25.9 ± 11.2 l·h ^−1; V/F [1, 3]: 559 ± 185 L; CL/F [1, 4]: 44.5 ± 21.6 l·h ^−1; V/F [1, 4]: 1381 ± 546 L; CL/F [1, 5]: 47.7 ± 31.2 l·h ^−1; V/F [1, 5]: 1287 ± 563 L; CL/F [1, 6]: 51.2 ± 12.3 l·h ^−1; V/F [1, 6]: 1613 ± 379 L; CL/F [1, 7]: 76.1 ± 32.1 l·h ^−1; V/F [1, 7]: 3057 ± 2094 L; CL/F [1, 8]: 106 ± 50.3 l·h ^−1; V/F [1, 8]: 3993 ± 2136 L
